Source: ChEMBL document CHEMBL1125565, “Hypoxia-selective antitumor agents. 6. 4-(Alkylamino)nitroquinolines: a new class of hypoxia-selective cytotoxins” (J Med Chem, 1992)

Key:
Nucleic Acid [1] = test system: Nucleic Acid
Description: (§1) Inhibitory concentration against DNA-bound ethidium bromide

CHO-AA8 [2] = test: cells; details: Cricetulus griseus, CHO-AA8, 18 h
Description: Growth inhibition in CHO subline AA8 cells exposed for 18 hr under aerobic(air) conditions

physchem [3] = details: aqueous solution
Description: (§2) Compound was evaluated for quinoline pKa value in aqueous solution at 25 degree Celsius by spectrophotometry

CHO-AA8 [4] = test: cells; details: Cricetulus griseus, CHO-AA8, 18 h; remark: listed apart in the source
Description: Growth inhibitory activity against CHO subline AA8 cells exposed for 18 hr under aerobic conditions

physchem [5] = details: aqueous solution; remark: listed apart in the source
Description: as §2

Nucleic Acid [6] = test system: Nucleic Acid; remark: listed apart in the source
Description: as §1

`Cc1c([N+](=O)[O-])ccc2c(NCCCN(C)C)ccnc12` gave a C50 (Nucleic Acid [1]) of 2.9 µM, an IC50 (CHO-AA8 [2]) of 21 µM and a pKa (physchem [3]) of 6.71.

In the case of `CNc1ccc([N+](=O)[O-])c2c(NCCCN(C)C)ccnc12`, the IC50 (CHO-AA8 [4]) is reported as 98 µM and the pKa (physchem [3]) is reported as 4.22.

`CN(C)CCCCNc1ccnc2cccc([N+](=O)[O-])c12` gave a C50 (Nucleic Acid [1]) of 3.1 µM, an IC50 (CHO-AA8 [2]) of 9 µM and a pKa (physchem [3]) of 6.71.

Compound `COCC(O)Cn1ccnc1[N+](=O)[O-]` (configuration not stated) [MISONIDAZOLE] has an IC50 (CHO-AA8 [2]) of 12100 µM.

Work on `CN(C)CCCNc1ncnc2cccc([N+](=O)[O-])c12` yielded a C50 (Nucleic Acid [1]) of 4.3 µM, an IC50 (CHO-AA8 [2]) of 82 µM and a pKa (physchem [3]) of 4.05.

`CN(C)CCCNc1c2ccccc2nc2cccc([N+](=O)[O-])c12` [NITRACRINE] gave an IC50 (CHO-AA8 [4]) of 0.024 µM.

With `Cc1ccc2nccc(NCCCN(C)C)c2c1[N+](=O)[O-]` the C50 (Nucleic Acid [1]) was 3.1 µM, the IC50 (CHO-AA8 [2]) was 170 µM and the pKa (physchem [3]) was 6.15.

Compound `CN(C)CCCNc1c([N+](=O)[O-])cnc2ccccc12` has a C50 (Nucleic Acid [1]) of 5 µM, an IC50 (CHO-AA8 [2]) of 34 µM and a pKa (physchem [5]) of 4.43.

With `Cc1cc(NCCCN(C)C)c2c([N+](=O)[O-])cccc2n1` the C50 (Nucleic Acid [1]) was 1.1 µM, the IC50 (CHO-AA8 [2]) was 6.6 µM and the pKa (physchem [3]) was 6.41.

In the case of `Cc1ccc2c(NCCCN(C)C)ccnc2c1[N+](=O)[O-]`, the C50 (Nucleic Acid [1]) is reported as 4.6 µM, the IC50 (CHO-AA8 [2]) is reported as 253 µM and the pKa (physchem [3]) is reported as 5.51.

For `CN(C)CCCNc1cc[n+](C)c2cccc([N+](=O)[O-])c12`, the C50 (Nucleic Acid [6]) was 3.6 µM and the IC50 (CHO-AA8 [4]) was 5.8 µM.

Work on `COc1ccc([N+](=O)[O-])c2c(NCCCN(C)C)ccnc12` yielded an IC50 (CHO-AA8 [2]) of 6.8 µM and a pKa (physchem [3]) of 6.76.

`Cc1cc2nccc(NCCCN(C)C)c2cc1[N+](=O)[O-]` showed a C50 (Nucleic Acid [1]) of 2.3 µM, an IC50 (CHO-AA8 [2]) of 28 µM and a pKa (physchem [3]) of 7.38.

Work on `CN(C)CCCNc1ccnc2cc([N+](=O)[O-])ccc12` yielded a C50 (Nucleic Acid [1]) of 0.9 µM, an IC50 (CHO-AA8 [2]) of 46 µM and a pKa (physchem [5]) of 6.77.

`Cc1cnc2cccc([N+](=O)[O-])c2c1NCCCN(C)C` showed a C50 (Nucleic Acid [1]) of 1 µM, an IC50 (CHO-AA8 [2]) of 33 µM and a pKa (physchem [3]) of 6.01.

`CN(C)CCNc1ccnc2cccc([N+](=O)[O-])c12` showed a C50 (Nucleic Acid [1]) of 1.5 µM, an IC50 (CHO-AA8 [2]) of 20.9 µM and a pKa (physchem [3]) of 5.77.

In the case of `CN(C)CCN(C)c1ccnc2cccc([N+](=O)[O-])c12`, the C50 (Nucleic Acid [1]) is reported as 3.9 µM, the IC50 (CHO-AA8 [2]) is reported as 95 µM and the pKa (physchem [3]) is reported as 4.86.

`CN(C)CCCNc1ccnc2cccc([N+](=O)[O-])c12` showed a C50 (Nucleic Acid [1]) of 1.1 µM, an IC50 (CHO-AA8 [2]) of 12.4 µM and a pKa (physchem [5]) of 6.39.

`CN(C)CCCNc1ccnc2ccccc12` showed a C50 (Nucleic Acid [1]) of 4.6 µM, an IC50 (CHO-AA8 [2]) of 125 µM and a pKa (physchem [5]) of 8.85.

With `Cc1ccc([N+](=O)[O-])c2c(NCCCN(C)C)ccnc12` the C50 (Nucleic Acid [1]) was 3 µM, the IC50 (CHO-AA8 [2]) was 29 µM and the pKa (physchem [3]) was 6.84.

`Cc1nc2ccccc2c(NCCCN(C)C)c1[N+](=O)[O-]` showed a C50 (Nucleic Acid [1]) of 8.6 µM, an IC50 (CHO-AA8 [2]) of 226 µM and a pKa (physchem [3]) of 5.35.

`CN(C)CCCNc1ccnc2ccc([N+](=O)[O-])cc12` showed a C50 (Nucleic Acid [1]) of 1 µM, an IC50 (CHO-AA8 [2]) of 34 µM and a pKa (physchem [5]) of 6.99.

Compound `CN(C)CCCNc1ccnc2c([N+](=O)[O-])cccc12` has a C50 (Nucleic Acid [1]) of 1.2 µM, an IC50 (CHO-AA8 [2]) of 93 µM and a pKa (physchem [3]) of 6.91.
